Experimental data reported in the supplement of paper PMC10307832.

What was measured:
Experiment in all cases: relative viability (nuclei count vs DMSO), 5 days (fraction); higher = more cells survive
[1] = test system: NCI-H727
In short: (§1)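 Lung cancer cell lines were pin-tool dosed in 1536-well plates on the day after seeding, with either a lone drug or a fixed anchor-drug dose plus five library-drug doses (not always all listed) in √10 steps. Nuclei were counted on 4× images after 5 days. Relative viability is the ratio of treated-well to vehicle-well nuclei counts, with each value a median of duplicate plates.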

[2] = test system: NCI-H3122
In short: as §1

[3] = test system: SW 900
In short: as §1

[4] = test system: LOU-NH91
In short: as §1

[5] = test system: LK-2
In short: as §1

[6] = test system: EKVX
In short: as §1

[7] = test system: CAL-12T
In short: as §1

[8] = test system: HCC-366
In short: as §1

[9] = test system: NCI-H441
In short: as §1

[10] = test system: NCI-H2170
In short: as §1

[11] = test system: NCI-H1437
In short: as §1

[12] = test system: HARA
In short: as §1

[13] = test system: ABC-1
In short: as §1

[14] = test system: BEN
In short: as §1

[15] = test system: NCI-H2009
In short: as §1

[16] = test system: NCI-H661
In short: as §1

[17] = test system: PC-14
In short: as §1

[18] = test system: COR-L 105
In short: as §1

[19] = test system: NCI-H1666
In short: as §1

[20] = test system: NCI-H460
In short: as §1

[21] = test system: NCI-H1650
In short: as §1

[22] = test system: 201T
In short: as §1

COc1cc2nccc(Oc3ccc(NC(=O)Nc4cc(C)on4)c(Cl)c3)c2cc1OC [Tivozanib] + O=C(c1cc(Cc2n[nH]c(=O)c3ccccc23)ccc1F)N1CCN(C(=O)C2CC2)CC1 [Olaparib] (partner 8 µM)
relative viability ([1]; first compound 0.005 µM): 0.678
relative viability ([1]; first compound 0.01581 µM): 0.787
relative viability ([1]; first compound 0.05 µM): 0.823
relative viability ([1]; first compound 0.1581 µM): 0.786
relative viability ([1]; first compound 0.5 µM): 0.74
relative viability ([2]; first compound 0.005 µM): 0.616
relative viability ([2]; first compound 0.01581 µM): 0.641
relative viability ([2]; first compound 0.05 µM): 0.768
relative viability ([2]; first compound 0.1581 µM): 0.684
relative viability ([2]; first compound 0.5 µM): 0.606
relative viability ([3]; first compound 0.005 µM): 0.779
relative viability ([3]; first compound 0.01581 µM): 0.817
relative viability ([3]; first compound 0.05 µM): 0.776
relative viability ([3]; first compound 0.5 µM): 0.855
relative viability ([4]; first compound 0.005 µM): 0.894
relative viability ([4]; first compound 0.01581 µM): 0.902
relative viability ([4]; first compound 0.05 µM): 0.932
relative viability ([4]; first compound 0.1581 µM): 0.891
relative viability ([4]; first compound 0.5 µM): 0.871
relative viability ([5]; first compound 0.005 µM): 0.67
relative viability ([5]; first compound 0.01581 µM): 0.759
relative viability ([5]; first compound 0.05 µM): 0.691
relative viability ([5]; first compound 0.1581 µM): 0.573
relative viability ([5]; first compound 0.5 µM): 0.613
relative viability ([6]; first compound 0.005 µM): 0.801
relative viability ([6]; first compound 0.01581 µM): 0.881
relative viability ([6]; first compound 0.05 µM): 0.908
relative viability ([6]; first compound 0.1581 µM): 0.922
relative viability ([6]; first compound 0.5 µM): 0.725
relative viability ([7]; first compound 0.005 µM): 0.666
relative viability ([7]; first compound 0.01581 µM): 0.654
relative viability ([7]; first compound 0.05 µM): 0.75
relative viability ([7]; first compound 0.1581 µM): 0.812
relative viability ([7]; first compound 0.5 µM): 0.584
relative viability ([8]; first compound 0.005 µM): 0.367
relative viability ([8]; first compound 0.01581 µM): 0.365
relative viability ([8]; first compound 0.05 µM): 0.37
relative viability ([8]; first compound 0.1581 µM): 0.363
relative viability ([8]; first compound 0.5 µM): 0.352
relative viability ([9]; first compound 0.005 µM): 0.538
relative viability ([9]; first compound 0.01581 µM): 0.531
relative viability ([9]; first compound 0.05 µM): 0.525
relative viability ([9]; first compound 0.1581 µM): 0.432
relative viability ([9]; first compound 0.5 µM): 0.396
relative viability ([10]; first compound 0.005 µM): 0.484
relative viability ([10]; first compound 0.01581 µM): 0.596
relative viability ([10]; first compound 0.05 µM): 0.642
relative viability ([10]; first compound 0.5 µM): 0.523
relative viability ([11]; first compound 0.005 µM): 0.613
relative viability ([11]; first compound 0.01581 µM): 0.628
relative viability ([11]; first compound 0.05 µM): 0.658
relative viability ([11]; first compound 0.1581 µM): 0.613
relative viability ([11]; first compound 0.5 µM): 0.584
relative viability ([12]; first compound 0.005 µM): 0.606
relative viability ([12]; first compound 0.01581 µM): 1.07
relative viability ([12]; first compound 0.05 µM): 0.763
relative viability ([12]; first compound 0.1581 µM): 1.15
relative viability ([12]; first compound 0.5 µM): 0.893
relative viability ([13]; first compound 0.005 µM): 0.815
relative viability ([13]; first compound 0.01581 µM): 0.837
relative viability ([13]; first compound 0.05 µM): 0.579
relative viability ([13]; first compound 0.1581 µM): 1.02
relative viability ([13]; first compound 0.5 µM): 0.67
relative viability ([14]; first compound 0.005 µM): 0.979
relative viability ([14]; first compound 0.01581 µM): 1.09
relative viability ([14]; first compound 0.05 µM): 1.07
relative viability ([14]; first compound 0.1581 µM): 1.03
relative viability ([14]; first compound 0.5 µM): 0.888
relative viability ([15]; first compound 0.005 µM): 0.655
relative viability ([15]; first compound 0.01581 µM): 0.703
relative viability ([15]; first compound 0.05 µM): 0.751
relative viability ([15]; first compound 0.1581 µM): 0.714
relative viability ([15]; first compound 0.5 µM): 0.542
relative viability ([16]; first compound 0.005 µM): 0.703
relative viability ([16]; first compound 0.01581 µM): 0.708
relative viability ([16]; first compound 0.05 µM): 0.741
relative viability ([16]; first compound 0.1581 µM): 0.77
relative viability ([16]; first compound 0.5 µM): 0.699
relative viability ([17]; first compound 0.005 µM): 0.28
relative viability ([17]; first compound 0.01581 µM): 0.316
relative viability ([17]; first compound 0.05 µM): 0.262
relative viability ([17]; first compound 0.1581 µM): 0.376
relative viability ([17]; first compound 0.5 µM): 0.306
relative viability ([18]; first compound 0.005 µM): 0.629
relative viability ([18]; first compound 0.01581 µM): 0.558
relative viability ([18]; first compound 0.05 µM): 0.773
relative viability ([18]; first compound 0.1581 µM): 0.713
relative viability ([18]; first compound 0.5 µM): 0.705
relative viability ([19]; first compound 0.005 µM): 0.777
relative viability ([19]; first compound 0.01581 µM): 0.713
relative viability ([19]; first compound 0.05 µM): 0.739
relative viability ([19]; first compound 0.1581 µM): 0.802
relative viability ([19]; first compound 0.5 µM): 0.719
relative viability ([20]; first compound 0.005 µM): 0.377
relative viability ([20]; first compound 0.01581 µM): 0.469
relative viability ([20]; first compound 0.05 µM): 0.496
relative viability ([20]; first compound 0.1581 µM): 0.393
relative viability ([20]; first compound 0.5 µM): 0.356
relative viability ([21]; first compound 0.005 µM): 0.714
relative viability ([21]; first compound 0.01581 µM): 0.94
relative viability ([21]; first compound 0.05 µM): 0.855
relative viability ([21]; first compound 0.1581 µM): 0.837
relative viability ([21]; first compound 0.5 µM): 0.863
relative viability ([22]; first compound 0.005 µM): 0.826
relative viability ([22]; first compound 0.01581 µM): 0.853
relative viability ([22]; first compound 0.05 µM): 0.821
relative viability ([22]; first compound 0.1581 µM): 0.875
relative viability ([22]; first compound 0.5 µM): 0.868
